From patent publication US7521065B2, “Compositions for the treatment and prevention of cancer” (priority 2001, dated 2009)

What was measured:
[1] = test system: normal embryonic liver or lung cells; details: added to the growth media; cited from earlier work
[2] = test system: lesion diagnosed as precancerous; experiment: Impregnated adhesive bandage on precancerous lesion, case report Example IV; assay type: in vivo, human; details: adhesive bandage impregnated with compound; person
From the text: A person developed a lesion diagnosed as precancerous on the upper part of their back.

[3] = test system: metastatic cutaneous and subcutaneous lesions and affected lymph nodes (breast cancer); experiment: Topical treatment of breast cancer metastases, case report Example VI; assay type: in vivo, human
From the text: In May 1998 a tumor was diagnosed in the left breast of a […] which had been treated for cancer of the right breast in 1974 by mastectomy, axillar resection, chemotherapy with cytoxan, metothrexate and 5-fluorouracil, and ovariectomy. In May 1999 they presented with numerous skin metastases on their upper torso and lymph node involvement. The patient underwent various therapies in Europe, which included chemotherapy, immunotherapy and hyperthermia, but numerous metastatic cutaneous and subcutaneous metastatic lesions remained on their chest, in the mastectomy scar, in the left axilla and on their back. […] As a precaution they are applying a lotion containing 0.2% solution of di-n-hexyl diselenide in jojoba oil onto areas of their skin once every two weeks.

small lump on breast = experiment: Cream applied onto breasts, case report Example V; assay type: in vivo, human; details: 0.2% in moisturizing cream, once a week; person
From the text: A person with a small lump on their breast was told that they were at risk of developing breast cancer. They applied onto their breasts once a week a cream containing 0.2% di-n-hexyl diselenide in a moisturizing cream of conventional composition. […] They presently continue to apply the selenium composition once a week as a precautionary measure.

[4] = From the text: The therapeutic efficacy of the dialkyl diselenides of these compositions depends on (1) the length of the alkyl residue R, and (2) the composition of the inert carrier as these determine the degree to which they can penetrate through the skin. […] Increasing the average alkyl chain length beyond n-hexyl causes them to become less skin penetrating and more suitable for the treatment of superficial cancerous lesions. Shortening the chain length below n-hexyl increases the volatility of these compounds. This reduces their therapeutic efficacy as it causes them to evaporate when brought onto the skin.
Selection of the appropriate alkyl residues R in these compounds is important as it determines their ability to penetrate the skin. Preferred are dialkyl diselenides with linear, medium-length straight alkyl residues of at least 6 and not exceeding 8 carbon atoms.

[5] = test system: high nuclear grade intraductal carcinoma of the right breast; experiment: Topical treatment of breast carcinoma, case report Example VII; assay type: in vivo, human
From the text: A person was diagnosed in July 1999 with a high nuclear grade intraductal carcinoma of the right breast. The tumor consisted of a hard mass in the lower left quadrant of the right breast of 3 cm diameter. In November 1999, a 6% di n-hexyl diselenide in a 1:1 mixture of n-decane and jojoba oil was applied onto the affected breast once per day. […] Status Jan. […] Status April 2001: Unchanged.

[6] = test system: irregular melanotic spot on right hand; experiment: Topical treatment of a melanotic spot, case report Example II; assay type: in vivo, human; details: 10% solution in 1:1 n-decane/n-dodecane, once every day for one week, person
From the text: A subject presented with a small irregular melanotic spot of approximately 3 mm diameter on their right hand which the subject had since birth but which in recent years had increased in size and became unsymmetrical. […] New skin growing over the lesion closed it without a scar.

[7] = test system: inoperable cancer of the rectum; experiment: Suppository treatment of rectal cancer, case report Example VIII; assay type: in vivo, human; details: suppositories containing 2% in cocoa butter, daily for 4 weeks
Procedure: A person was diagnosed with inoperable cancer of the rectum in 1998 and was offered radiation therapy, which they refused. A colostomy was performed in the fall of 1998. They applied suppositories containing 2% di-n-hexyl diselenide in cocoa butter daily into their rectum for a period of 4 weeks.

[8] = test system: skin lesion with all characteristics of a superficially spreading melanoma; experiment: Topical treatment of a skin lesion, case report Example I; assay type: in vivo, human; details: 10% solution in n-decane, twice a day for 3 days, person, lesion 0.8 cm
From the text: A subject presented with a skin lesion of 0.8 cm diameter on their right upper chest.

[9] = test system: several human cancer cell lines; details: cell cultures; cited from earlier work
[10] = test system: squamous carcinoma on nose; experiment: Topical cream treatment of squamous carcinoma, case report Example III; assay type: in vivo, human; details: cream containing 6%, twice per day for 5 days; person

## O=[Se](O)O [sodium selenite]
[1]
  effect on normal cells: without affecting

## CCCCCCCC[Se][Se]CCCCCCCC [di-n-octyl diselenide]
[2]
  outcome of precancerous lesion: caused the lesion to dry out and drop off without a scar within 3 weeks

## CCCCCC[SeH] [n-hexyl selenol]
[3]; 10% solution in n-decane
  outcome of recurrences on chest and metastases on back: effectively controlled
[3]; after 10% solution in n-decane
  follow-up after treatment of recurrences: remained free of obvious signs of cancer for one year

## CCCCCC[Se][Se]CCCCCC [di-n-hexyl diselenide]
Small lump on breast
  outcome of breast lump: lump in their breast disappeared over a period of two months
[4]
  skin penetration properties: excellent skin penetration properties
[5]; 6% in 1:1 n-decane/jojoba oil, once per day, breast mass 3 cm diameter
  outcome of breast mass: Over a period of 4 weeks the breast mass shrunk and ultimately disappeared
[5]; Status Jan. 8, 2000, unchanged April 2001
  status by ultrasonic examination: No breast mass detectable
[3]; 5% in n-decane
  outcome of metastatic lesions and affected lymph nodes: caused their disappearance within two weeks
[3]; after 5% in n-decane
  follow-up after treatment: remained free of cancer for two years
[6]
  outcome of melanotic spot: caused the affected skin to turn brittle and to fall off
[7]
  patient status during the following 2 years: their status has remained stable, they gained weight, and was able to work
  tumor mass by X-ray and sonographic examinations: the tumor mass had ceased to grow
[8]
  outcome of skin lesion: caused a layer of dead cells to be formed which dropped off after 4 days without leaving a scar

## CCCCCCC[Se][Se]CCCCCCC [di-n-heptyl diselenide]
[9]
  growth of cancer cell lines: inhibit the growth
[10]
  outcome of squamous carcinoma lesion: disappearance of the lesion
